Measured values: patent US20220380374A1, “1,4-DIHYDROBENZO[D]PYRAZOLO[3,4-F][1,3]DIAZEPINE DERIVATIVES AND RELATED COMPOUNDS AS LRRK2, NUAK1 AND/OR TYK2 KINASE MODULATORS FOR THE TREATMENT OF E.G. AUTOIMMUNE DISEASE” (Origenis GMBH, priority 2019, published 2022)
pIC50: −log10 of the molar value.

Experiments:
[1] = target: T1, wt human NUAK1, full length (Homo sapiens, UniProt O60285); assay: TR-FRET LanthaScreen Eu Kinase Binding Assay, NUAK1; details: 5 nM Kinase Tracer 236; read-out: IC50, inhibitory activity toward NUAK1
T1 construct: 8 nM wt human NUAK1, full length (ThermoFisher/USA); purchased ThermoFisher/USA
T1 sequence (O60285 1-661): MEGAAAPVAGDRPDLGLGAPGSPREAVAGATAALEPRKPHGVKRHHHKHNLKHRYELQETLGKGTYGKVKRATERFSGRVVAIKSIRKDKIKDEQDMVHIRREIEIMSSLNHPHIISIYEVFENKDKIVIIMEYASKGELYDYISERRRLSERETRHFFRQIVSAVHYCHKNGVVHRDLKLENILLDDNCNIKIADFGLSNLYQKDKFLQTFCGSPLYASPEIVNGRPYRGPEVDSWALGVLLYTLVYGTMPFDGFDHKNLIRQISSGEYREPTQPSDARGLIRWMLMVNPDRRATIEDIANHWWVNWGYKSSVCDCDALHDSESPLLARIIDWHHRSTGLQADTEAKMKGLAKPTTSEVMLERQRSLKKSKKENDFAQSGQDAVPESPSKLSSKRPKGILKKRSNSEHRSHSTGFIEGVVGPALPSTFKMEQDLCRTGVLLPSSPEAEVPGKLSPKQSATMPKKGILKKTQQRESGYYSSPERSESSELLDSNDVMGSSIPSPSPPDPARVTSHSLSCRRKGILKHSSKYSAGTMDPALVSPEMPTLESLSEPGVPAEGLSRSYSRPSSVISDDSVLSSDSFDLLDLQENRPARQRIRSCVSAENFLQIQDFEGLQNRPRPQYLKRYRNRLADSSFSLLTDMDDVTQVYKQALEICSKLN
Method: The basic protocol for TR-FRET LanthaScreen Eu Kinase Binding Assay inhibitor studies were performed as follows. LanthaScreen Kinase Binding Assays (ThermoFisher/USA) to evaluate inhibitors were performed by addition of 5 μl of test compound in corresponding DMSO dilutions/5 μl of kinase/antibody mixture, 5 μl of tracer into 384 well small volume plates. After incubation for 1 hour at room temperature, plates were read. Data analysis of emission ratios was according to LanthaScreen Eu Kinase Binding Assay protocol.
Kinase and assay components were adjusted to final concentrations according to the kit protocol. For LRRK2: 5 nM wt human LRRK2, catalytic site, or G2019S human LRRK2, catalytic site (ThermoFisher/USA), 2 nM Eu-Anti-GST Antibody, 10 nM Kinase Tracer 236 in 1× Kinase Buffer A. For NUAK1: 8 nM wt human NUAK1, full length (ThermoFisher/USA), 2 nM Eu-Anti-His Antibody, 5 nM Kinase Tracer 236 in 1× Kinase Buffer A.

[2] = target: T2, wt human TYK2, catalytic site (Homo sapiens, UniProt P29597); assay: HTRF KinEASE assay, TYK2; type: biochemical; details: 1 μM ATP; read-out: IC50, inhibitory activity toward TYK2
T2 construct: 2 nM wt human TYK2, catalytic site (SignalChem/CAN); purchased SignalChem/CAN
T2 sequence (P29597 897-1176 limits assumed): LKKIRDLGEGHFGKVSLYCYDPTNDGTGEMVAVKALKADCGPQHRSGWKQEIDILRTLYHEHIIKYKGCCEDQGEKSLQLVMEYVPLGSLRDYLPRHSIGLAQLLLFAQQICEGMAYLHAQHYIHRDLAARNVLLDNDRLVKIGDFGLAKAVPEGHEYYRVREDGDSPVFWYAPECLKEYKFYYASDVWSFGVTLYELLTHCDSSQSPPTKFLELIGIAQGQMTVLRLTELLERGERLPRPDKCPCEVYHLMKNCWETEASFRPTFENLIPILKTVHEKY
Method: Basic protocol for HTRF KinEASE assay (Cisbio/FRA) inhibitor studies involved two steps: Enzymatic step: Addition of 4 μl of test compound in corresponding DMSO dilutions, 4 μl of kinase/substrate mixture, 2 μl of ATP into 384 well small volume plates. Incubation for at least 30 minutes at room temperature.
Detection step: Addition of 5 μl antibody and 5 μl streptavidin-XL665, read plate after 60 minutes. Data analysis of emission ratios according to KinEASE assay protocol.
Kinase and assay components were adjusted to final concentrations according to the kit protocol. For TYK2: 2 nM wt human TYK2, catalytic site (SignalChem/CAN), 1 μM HTRF KinEASE-TK Substrate-biotin, 1 μM ATP in 1× Kinase Buffer

SMILES | pIC50 [1] | pIC50 [2]
Fc1cccc(F)c1C1=Nc2c(Cl)n[nH]c2-c2cc(Cl)ncc2N1 [Compound 171, 3,9-dichloro-5-(2,6-difluorophenyl)-1,6-dihydropyrazolo[4,3-d]pyrido[4,3-f][1,3]diazepine] | 7.00 to 8.00 | 7.00 to 8.00
CN1CCN(c2ncc3c(n2)N=C(c2c(F)cccc2F)Nc2c[nH]nc2-3)CC1 [Compound 219] | 6.00 to 7.00 | 7.00 to 8.00
Cc1ccc2c(c1)-c1[nH]ncc1N=C(c1c(F)cccc1F)N2 [Compound 36, 5-(2,6-difluorophenyl)-9-methyl-1,6-dihydrobenzo[d]pyrazolo[3,4-f][1,3]diazepine] | 7.00 to 8.00 | 6.00 to 7.00
Fc1cccc(Cl)c1C1=Nc2cnc(Cl)cc2-c2n[nH]cc2N1 [Compound 190, 9-chloro-5-(2-chloro-6-fluorophenyl)-2,4-dihydropyrazolo[4,3-d]pyrido[4,3-f][1,3]diazepine] | 7.00 to 8.00 | 7.00 to 8.00
Cc1cc(F)c2c(c1)-c1[nH]nc(Cl)c1NC(c1c(F)cccc1F)=N2 [Compound 166, 3-chloro-5-(2,6-difluorophenyl)-7-fluoro-9-methyl-1,4-dihydrobenzo[d]pyrazolo[3,4-f][1,3]diazepine] | 7.00 to 8.00 | 6.00 to 7.00
Fc1ccc(F)c(C2=Nc3ccccc3-c3[nH]ncc3N2)c1F [Compound 32, 5-(2,3,6-trifluorophenyl)-1,4-dihydrobenzo[d]pyrazolo[3,4-f][1,3]diazepine] | 6.00 to 7.00 | 6.00 to 7.00
Cc1n[nH]c2c1NC(c1c(F)cccc1F)=Nc1ccccc1-2 [Compound 76, 5-(2,6-difluorophenyl)-3-methyl-1,4-dihydrobenzo[d]pyrazolo[3,4-f][1,3]diazepine] | 7.00 to 8.00 | 7.00 to 8.00
Cc1ccc2c(c1)-c1[nH]ncc1NC(c1c(Cl)cccc1Cl)=N2 [Compound 152, 5-(2,6-dichlorophenyl)-9-methyl-1,4-dihydrobenzo[d]pyrazolo[3,4-f][1,3]diazepine] | 6.00 to 7.00 | 6.00 to 7.00
CSc1n[nH]c2c1NC(c1c(F)cccc1F)=Nc1ccccc1-2 [Compound 146, 5-(2,6-difluorophenyl)-3-(methylthio)-1,4-dihydrobenzo[d]pyrazolo [3,4-f][1,3]diazepine] | 6.00 to 7.00 | 6.00 to 7.00
COc1ccc2c(c1)N=C(c1c(F)cccc1F)Nc1cn[nH]c1-2 [Compound 49, 5-(2,6-difluorophenyl)-8-methoxy-1,4-dihydrobenzo[d]pyrazolo[3,4-f][1,3]diazepine] | 6.00 to 7.00 | 7.00 to 8.00
Fc1cccc(Cl)c1C1=Nc2ncccc2-c2[nH]ncc2N1 [Compound 30, 5-(2-chloro-6-fluorophenyl)-1,4-dihydropyrazolo[4,3-d]pyrido[3,2-f][1,3]diazepine] |  | 7.00 to 8.00
Fc1ccc2c(c1F)N=C(c1c(F)cccc1F)Nc1cn[nH]c1-2 [Compound 170, 5-(2,6-difluorophenyl)-7,8-difluoro-1,4-dihydrobenzo[d]pyrazolo[3,4-f][1,3]diazepine] |  | 6.00 to 7.00
O=C(c1ccc2c(c1)N=C(c1c(Cl)cccc1Cl)Nc1cn[nH]c1-2)N1CCOCC1 [Compound 79, (5-(2,6-dichlorophenyl)-1,4-dihydrobenzo[d]pyrazolo[3,4-f][1,3]diazepin-8-yl)(morpholino)methanone] |  | 6.00 to 7.00
O=C(NC1CCOCC1)c1cc2c(cc1Cl)-c1n[nH]cc1N=C(c1c(F)cccc1F)N2 [Compound 199, 9-chloro-5-(2,6-difluorophenyl)-N-(tetrahydro-2H-pyran-4-yl)-2,6-dihydrobenzo[d]pyrazolo[3,4-f][1,3]diazepine-8-carboxamide] |  | 6.00 to 7.00
Fc1cc2c(cc1OC1CCOCC1)N=C(c1c(Cl)cccc1C(F)(F)F)Nc1c[nH]nc1-2 [Compound 224, 5-(2-chloro-6-(trifluoromethyl)phenyl)-9-fluoro-8-((tetrahydro-2H-pyran-4-yl)oxy)-2,4-dihydrobenzo[d]pyrazolo[3,4-f][1,3]diazepine] |  | 7.00 to 8.00
Fc1cccc(F)c1C1=Nc2cn[nH]c2-c2cn(C3CCOCC3)nc2N1 [Compound 60, 5-(2,6-difluorophenyl)-8-(tetrahydro-2H-pyran-4-yl)-6,8-dihydro-1H-dipyrazolo[3,4-d:3′,4′-f][1,3]diazepine] |  | 6.00 to 7.00
O=[N+]([O-])c1cccc(F)c1C1=Nc2cn[nH]c2-c2ccccc2N1 [Compound 106, 5-(2-fluoro-6-nitrophenyl)-1,6-dihydrobenzo[d]pyrazolo[3,4-f][1,3]diazepine] |  | 6.00 to 7.00
Fc1cc2c(cc1Oc1ccccc1)N=C(c1c(F)cccc1Cl)Nc1c[nH]nc1-2 [Compound 244, 5-(2-chloro-6-fluorophenyl)-9-fluoro-8-phenoxy-2,4-dihydrobenzo[d]pyrazolo[3,4-f][1,3]diazepine] |  | 6.00 to 7.00
CCC(CC)Oc1cc2c(cc1F)-c1n[nH]cc1N=C(c1c(F)cccc1Cl)N2 [Compound 232, 5-(2-chloro-6-fluorophenyl)-9-fluoro-8-(pentan-3-yloxy)-2,6-dihydrobenzo[d]pyrazolo[3,4-f][1,3]diazepine] |  | 7.00 to 8.00
O=[N+]([O-])c1cccc(F)c1C1=Nc2cn[nH]c2-c2cccnc2N1 [Compound 108, 5-(2-fluoro-6-nitrophenyl)-1,6-dihydropyrazolo[4,3-d]pyrido[3,2-f][1,3]diazepine] |  | 6.00 to 7.00
NC(=O)c1ccc2c(c1)N=C(c1c(F)cccc1F)Nc1cn[nH]c1-2 [Compound 81, 5-(2,6-difluorophenyl)-1,4-dihydrobenzo[d]pyrazolo[3,4-f][1,3]diazepine-8-carboxamide] |  | > 8.00
O=[N+]([O-])c1ccc(F)c(C2=Nc3cn[nH]c3-c3ccccc3N2)c1F [Compound 107, 5-(2,6-difluoro-3-nitrophenyl)-1,6-dihydrobenzo[d]pyrazolo[3,4-f][1,3]diazepine] |  | 6.00 to 7.00
Fc1cccc(I)c1C1=Nc2ccccc2-c2[nH]ncc2N1 [Compound 111, 5-(2-fluoro-6-iodophenyl)-1,4-dihydrobenzo[d]pyrazolo[3,4-f][1,3]diazepine] |  | 6.00 to 7.00
COc1cccc(F)c1C1=Nc2cn[nH]c2-c2cccnc2N1 [Compound 119] |  | 6.00 to 7.00
Fc1cccc(Cl)c1C1=Nc2cn[nH]c2-c2cc(OC(F)(F)F)ccc2N1 [Compound 41, 5-(2-chloro-6-fluorophenyl)-9-(trifluoromethoxy)-1,6-dihydrobenzo[d]pyrazolo[3,4-f][1,3]diazepine] | 6.00 to 7.00 | 
O=C(c1ccc2c(c1)N=C(c1c(F)cccc1F)Nc1cn[nH]c1-2)N1CCOCC1 [Compound 56, (5-(2,6-difluorophenyl)-1,4-dihydrobenzo[d]pyrazolo[3,4-f][1,3]diazepin-8-yl)(morpholino)methanone] |  | 6.00 to 7.00
Fc1cccc(F)c1C1=Nc2cn[nH]c2-c2[nH]ncc2N1 [Compound 66, 5-(2,6-difluorophenyl)-4,9-dihydro-1H-dipyrazolo[4,3-d:3′,4′-f][1,3]diazepine] |  | 7.00 to 8.00
CC[C@@H](C)Oc1cc2c(cc1F)-c1n[nH]cc1N=C(c1c(F)cccc1Cl)N2 [Compound 248, (R)-8-(sec-butoxy)-5-(2-chloro-6-fluorophenyl)-9-fluoro-2,6-dihydrobenzo[d]pyrazolo[3,4-f][1,3]diazepine] |  | 7.00 to 8.00
